Measured values as given in US5871779A, “Treatment of arthropathies with vanadate compounds or analogues thereof” (Mount Sinai Hospital Corporation, priority 1996, dated 1999).

Assays:
c-fos = assay: TNFα and bFGF induced c-fos mRNA in chondrocytes (Northern blot); type: cell-based, bovine; conditions: 100 μM, 2 hours preincubation
Method: Chondrocyte cultures were stimulated with H2 O2 (100 μM) at different time points as indicated. […] Chondrocyte cultures were preincubated with NAC (30 mM) or Asc (100 μM) for 2 hours before the addition of bFGF (10 ng/ml) or TNFα (30 ng/ml) for 30 minutes. Both human recombinant TNFα and bFGF were dissolved in phosphate buffered saline with 0.1% bovine serum albumin. NAC and Asc were first dissolved in Ham's F12 medium containing 5% (v/v) fetal bovine serum, then neutralized with sodium hydroxide. Total RNA from bovine articular chondrocytes was isolated and the c-fos mRNA levels were determined by Northern blot analysis as described herein. The blots were subsequently stripped of DNA and re-probed with ^32 p-labelled rat β tubulin cDNA.
Chondrocyte cultures were pretreated with DPI (2 μM) for 30 minutes before the addition of TNFα (30 ng/ml) or bFGF (10 ng/ml) for 30 minutes. Measurements of c-fos and tubulin mRNA levels were as described in Example 11.

carcinogenesis = conditions: cited from earlier work
fos = fos / c-fos mRNA expression in chondrocytes (Northern blot); type: cell-based, bovine; conditions: stimulus alone; H2 O2 30, 60 and 90 minutes; IL-1, PMA or AA (3 μM) 1 hour
Method: The cytokine interleukin 1 (IL 1) has been used to identify the intermediate second messengers which regulate the expression of fos and jun.
In order to elucidate this possibility, the effect of DPI on fos and jun mRNA levels induced by IL 1 was investigated. RNA from chondrocytes treated with IL 1 in the presence and absence of DPI were analyzed by Northern blot analysis using either fos or collagenase cDNA probes.
Since superoxides are rapidly converted to hydrogen peroxide in the cell by superoxide dismutase, whether hydrogen peroxide could mimic the effect of IL 1 in the induction of fos expression was investigated. RNA was extracted from chondrocytes (Kandel et al. supra) treated with H2 O2 for 30, 60 and 90 minutes and examined by Northern blot analysis using a fos cDNA probe.
Bovine articular chondrocytes were isolated and plated as previously described (Kandel R. A. et al. Biochim. Biophys. Acta. 1053, 130-134, 1990). […] The amount of ^3 H-AA liberated into the supernatant was determined. To measure PGE2 production, chondrocytes were incubated for 6 hours in Ham's F12 medium, either alone or with IL 1 or PMA. […] In order to examine the expression of c-fos and c-jun, chondrocytes were incubated for 1 hour in the presence of IL-1, PMA or AA (3 μM). Chondrocytes were washed in PBS and the total RNA extracted as previously described (Cruz. et al, 1991, Biochem. J. 277, 327-330). RNA samples were run on formaldehyde agarose gels and transferred to nylon membrane for northern analysis using cDNA probes for c-fos and c-jun.
The RNA was extracted and examined by Northern blot analysis using cDNA probes for c-fos and collagenase.

cells = assay: cell toxicity of orthovanadate and H2 O2; type: cell-based; conditions: 1 mM H2 O2, 24 hours
Method: Orthovanadate was thought in view of the investigations described in Examples 1-3, to react with H2 O2 to form hydroxyl radicals which are extremely toxic. If the orthovanadate induced formation of hydroxyl radicals is responsible for cell toxicity, then adding exogenous H2 O2 should enhance the effects of orthovanadate. Accordingly, cells were incubated in media alone or containing 1 mM H2 O2 or 10 μM orthovanadate or both for 24 hours. The cells were harvested and cell viability determined.

MDAY-D2 cells = assay: viability of MDAY-D2 cells; type: cell-based, mouse; conditions: 0-50 μM, 48 hours, three forms compared
Method: Fos and jun activity are also required for cellular proliferation in many tumor cell lines. Accordingly, the effect of orthovanadate on adherent cells and cell suspensions were examined. MDAY-D2 (a mouse lymphoid cell line grown in suspension) and HTB14 cells (an adherent human primary astrocytoma cell line) were incubated in media containing 0-50 μM orthovanadate for 48 hours. The cells were harvested and the number of viable cells determined.
Three different forms of vanadyl compounds were examined for their effect on viability of cancer cell lines. MDAY-D2 cells were incubated in media containing 0-50 μM orthovanadate, vanadyl sulphate, or vanadyl hydroperoxide for 48 hours. The cells were harvested and the number of viable cells determined. […] Although there were slight differences in sensitivity, the overall cell death was similar.

MDAY-D2 tumor = MDAY-D2 tumor growth in vivo, orthovanadate, vanadyl sulphate, vanadyl hydroperoxide (Example 6B); design: species or system mice
Excerpt: (§1) In order to examine the ability of vanadyl compounds to reduce tumor formation, growth and metastases, a specific animal model which allows investigation of all of these processes in the same animal was chosen. This model involves the injection of a metastatic haematopoietic cell line, MDAY-D2, into mice subcutaneously. These cells form a tumor at the site of injection and its size can be easily determined. In addition, these cells metastasize to the liver and metastases can be detected histologically after day 17 to 19. This model provides a very sensitive and reproducible approach to investigate the effect of vanadyl compounds on tumor growth and metastases.
In a separate experiment using the same animal model, the effect of orthovanadate, vanadyl sulphate and vanadyl hydroperoxide administration on tumor growth in vivo was examined. On Day 1, 20 mice were injected with 2×10^5 MDAY-D2 cell subcutaneously. The mice were divided into four groups of five mice. At day 5, the animals were injected subcutaneously with 50 μl of water alone or containing 10 mg/ml of orthovanadate, 10 mg/ml of vanadyl sulphate, or 10 mg/ml of vanadyl hydroperoxide. This treatment was continued daily for 16 days. At day 21, the mice were sacrificed and the tumors dissected and weighed.

[1] = test system: metastases of MDAY-D2 cells; assay: liver metastases of MDAY-D2 cells (histology); type: in vivo, mice; conditions: 500 μg/day; preliminary results
Excerpt: as §1
The metastatic liver was obtained from an animal 24 days following the administration MDAY-D2 cells. The nodules are quite numerous and large.
Livers were removed from animals treated as described above and prepared for histological examination. FIG. 16 compares liver sections from untreated (C), orthovanadate (VO)(500 μg/day) and vanadyl sulphate (VS)(500 μg/day) treated animals. Nodules are identified with an arrow.

P388 (WT) = assay: MTT cytotoxicity assay, P388 (WT); type: cell-based, murine; conditions: P388 (WT), 72 hours; read-out: IC50 Value
Method: (§2) The relative cytotoxicity of various compounds on tumor cell lines was investigated as follows. Cytotoxicity was measured by the MTT microculture tetrazolium colorimetric assay for all cell lines. The relative cytotoxicity of Na3 VO4 and VOSO4 was investigated using the following tumor cell lines: P388(WT) murine leukemia, P388 (ADR) murine leukemia, Lewis murine lung, MCF7 (WT) human breast, […] human lung, K562 human erythroleukemia, A431 human epidermal, LS180 human colon and SK-OV-3 human ovarian. The relative cytotoxicity of doxorubicin, Na3 VO4 and VOSO4 was investigated using the following tumor cell lines: P388(WT) murine leukemia, P388 (ADR) murine leukemia, MCF7(WT) human breast and MCF7 (ADR) human breast. The relative cytotoxicity of BMOV, BEOV and naglivan was investigated using the following tumor cell lines: P388(WT) murine leukemia, P388 (ADR) murine leukemia, Lewis murine lung, H460 human lung, K562 human erythroleukemia, and SK-OV-3 human ovarian.
(§3) The cells were plated (number of cells/well was different from cell line to cell depending on the dividing rate) in a 96-well microculture plate 24 hours prior to the delivery of the vanadium compounds. Serial concentrations of solutions of the test compounds (0.05-100 μM) were delivered to the corresponding wells. A blank column (without cells) and a control column (with cells without vanadium) were left. The cells were incubated for 72 hours continuously. An MTT solution was added to each well after this incubation period and the cells were incubated for 4 more hours for the completion of the dyeing process. The medium was removed find DMSO was added to each well. The absorbance of each well was read with a Titertek Multiskan (310C) spectrophotometer at 570 nm. The percentage of the absorbance of each vanadium concentration relative to the control calculated and the value of the 50% growth inhibition concentration (IC50) was obtained from the % control versus concentration plot. Each assay was repeated three times and the reported IC50 values were the mean of these three runs.

P388 (ADR) = assay: MTT cytotoxicity assay, P388 (ADR); type: cell-based, murine; conditions: P388 (ADR), 72 hours; read-out: IC50 Value
Method: as §2, §3

Lewis lung = assay: MTT cytotoxicity assay, Lewis lung; type: cell-based, murine; conditions: 72 hours
Method: as §2, §3

MCF7 (WT) = assay: MTT cytotoxicity assay, MCF7 (WT); type: cell-based, human; conditions: MCF7 (WT), 72 hours; read-out: IC50 Value
Method: as §2, §3

MCF7 (ADR) = assay: MTT cytotoxicity assay, MCF7 (ADR); type: cell-based, human; conditions: MCF7 (ADR), 72 hours; read-out: IC50 Value
Method: as §2, §3

H460 = assay: MTT cytotoxicity assay, H460; type: cell-based, human; conditions: H460, 72 hours
Method: as §2, §3

K562 = assay: MTT cytotoxicity assay, K562; type: cell-based, human; conditions: K562, 72 hours
Method: as §2
as §3, with “Serial concentrations of solutions of the test compounds (0.05-100 μM) were delivered to the corresponding wells.” left out

A431 = assay: MTT cytotoxicity assay, A431; type: cell-based, human; conditions: A431, 72 hours
Method: as §2
(§4) The cells were plated (number of cells/well was different from cell line to cell depending on the dividing rate) in a 96-well microculture plate 24 hours prior to the delivery of the vanadium compounds. Serial concentrations of solutions of the test compounds (0.05-100 μM) were delivered to the corresponding wells. […] The absorbance of each well was read with a Titertek Multiskan (310C) spectrophotometer at 570 nm. […]

LS180 = assay: MTT cytotoxicity assay, LS180; type: cell-based, human; conditions: LS180, 72 hours
Method: as §2, §4

SK-OV-3 = assay: MTT cytotoxicity assay, SK-OV-3; type: cell-based, human; conditions: SK-OV-3, 72 hours
Method: as §2, §3

synoviocytes = assay: synoviocyte proliferation, dye exclusion (Example 24); type: cell-based
Method: The effect of vanadium compounds on synoviocyte proliferation was investigated as follows. Synoviocytes were plated on six well plates and treated with orthovanadate or vanadyl sulphate and incubated for 24 hours. The cells were removed and the number of viable cells determined by the dye exclusion method.

chondrocytes = assay: TNFα and bFGF induced ROS production in chondrocytes (DHR fluorescence); type: cell-based; conditions: 4 hours in the presence of DHR
Method: With time, DHR by itself caused a shift in fluorescence to the right as shown in panels a to c. A dotted line was drawn through the mean fluorescence intensity of the control (panel c) with DHR alone for 4 hours. After incubation with TNFα or bFGF for 4 hours in the presence of DHR, there was a further shift in logarithmic fluorescence intensity as indicated in panel d or f. In panels e and g, DPI abolished the fluorescent shift stimulated by TNPα and bFGF respectively.

Compound: O=C1O[C@H]([C@@H](O)CO)C(O)=C1O [Asc, ascorbic acid]
- inhibition of TNFα and bFGF induced c-fos mRNA levels (c-fos): inhibit
- anticancer activity (carcinogenesis; G. Shklar et al.): anticancer activity

Compound: OO [H2 O2, hydrogen peroxide]
- stimulation of fos / c-fos expression (fos): stimulates
- effect on cell toxicity, H2 O2 alone (cells): small effect

Compound: O=S(=O)([O-])[O-].[O]=[V+2] [vanadyl sulphate]
- killing of MDAY-D2 cells (MDAY-D2 cells): equally effective
- animal deaths (MDAY-D2 tumor; groups of five, 10 mg/ml, 50 μl daily s.c.): One animal died
- efficacy in reducing tumor growth (MDAY-D2 tumor; mouse, in vivo): less effective
- metastases in liver [1]: did not have detectable levels of metastases
- IC50 (P388 (WT)): 16.1 µM
- IC50 (P388 (ADR)): 29.8 µM
- IC50 (Lewis lung): 27.3 µM
- IC50 (MCF7 (WT)): 10.5 µM
- IC50 (MCF7 (ADR)): 31.3 µM
- IC50 (H460): 9.3 µM
- IC50 (K562): > 100 µM
- IC50 (A431): 29.1 µM
- IC50 (LS180): 31.9 µM
- IC50 (SK-OV-3): 1.9 µM
- cytotoxicity to synoviocytes (synoviocytes): cytotoxic to the cells
- Number of cells (synoviocytes; 25 μM, 24 hours (control 2.6)): 0.2 10^-5
- synoviocyte proliferation (synoviocytes; 24 hours): inhibited synoviocyte proliferation
- chemically induced mammary carcinogenesis in rats (carcinogenesis; dietary): inhibit

Compound: TNFα
- shift in logarithmic fluorescence intensity (ROS production) (chondrocytes): further shift

Compound: bFGF: human recombinant bFGF
- shift in logarithmic fluorescence intensity (ROS production) (chondrocytes): further shift
